Calls of active or inactive are those of the source. No cut-off for these calls is given here.
Legend:
Acetylcholinesterase = Acetylcholinesterase (Electrophorus electricus, UniProt O42275); experiment: Inhibition of electric eel AChE using acetylthiocholine as substrate preincubated for 5 mins followed by substrate addition measured after 20 mins by Ellman's method
Cholinesterase = Cholinesterase (Equus caballus, UniProt P81908); experiment: Inhibition of equine serum BuChE using butyrylthiocholine as substrate preincubated for 5 mins followed by substrate addition measured after 20 mins by Ellman's method
Chain of Cholinesterase (P81908 whole entry): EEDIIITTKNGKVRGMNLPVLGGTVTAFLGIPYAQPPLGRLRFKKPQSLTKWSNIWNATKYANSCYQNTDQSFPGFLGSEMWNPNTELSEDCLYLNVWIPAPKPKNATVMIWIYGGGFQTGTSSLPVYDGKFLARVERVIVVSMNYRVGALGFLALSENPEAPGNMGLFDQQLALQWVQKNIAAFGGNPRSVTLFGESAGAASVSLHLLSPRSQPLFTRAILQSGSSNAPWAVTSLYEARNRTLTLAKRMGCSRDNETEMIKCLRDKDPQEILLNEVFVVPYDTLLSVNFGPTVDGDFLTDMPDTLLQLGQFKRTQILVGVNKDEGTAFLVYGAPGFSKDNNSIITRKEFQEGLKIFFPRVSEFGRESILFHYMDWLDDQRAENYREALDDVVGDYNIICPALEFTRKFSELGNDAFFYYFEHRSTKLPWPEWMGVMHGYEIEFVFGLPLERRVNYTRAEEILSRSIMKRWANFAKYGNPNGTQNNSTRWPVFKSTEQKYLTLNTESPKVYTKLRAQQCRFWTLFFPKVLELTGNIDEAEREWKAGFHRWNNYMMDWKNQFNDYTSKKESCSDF

[1] = target: T1, Amine oxidase [flavin-containing] B (Rattus norvegicus, UniProt P19643); experiment: Inhibition of MAO-B in Wistar rat liver using 4-trifluoromethyl benzylamine as substrate preincubated for 20 mins followed by substrate addition measured after 90 mins by microplate reader assay; assay type: tissue-based
T1 sequence (P19643 whole entry): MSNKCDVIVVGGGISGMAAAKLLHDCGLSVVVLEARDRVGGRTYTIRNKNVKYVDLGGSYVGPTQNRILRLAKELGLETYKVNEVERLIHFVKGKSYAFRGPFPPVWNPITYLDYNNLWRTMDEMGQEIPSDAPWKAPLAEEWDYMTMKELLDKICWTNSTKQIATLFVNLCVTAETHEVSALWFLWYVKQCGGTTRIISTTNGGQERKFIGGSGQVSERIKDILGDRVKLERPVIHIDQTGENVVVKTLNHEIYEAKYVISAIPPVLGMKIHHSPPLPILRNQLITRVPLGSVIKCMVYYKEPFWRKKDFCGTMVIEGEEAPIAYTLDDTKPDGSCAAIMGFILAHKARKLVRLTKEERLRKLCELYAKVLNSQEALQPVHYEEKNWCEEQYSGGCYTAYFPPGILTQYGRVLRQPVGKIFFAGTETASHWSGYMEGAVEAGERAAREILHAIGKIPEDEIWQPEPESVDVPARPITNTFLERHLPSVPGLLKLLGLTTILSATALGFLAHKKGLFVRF

[2] = Antioxidant activity assessed as reduction of colourless Fe3+-TPTZ complex to coloured Fe2+-TPTZ complex measured after 5 mins by FRAP assay; assay type: functional
[3] = target: Acetylcholinesterase (Electrophorus electricus) (UniProt O42275); experiment: Mixed-type inhibition of electric eel AChE at 0.5 to 50 nM using varying level of acetylthiocholine as substrate preincubated for 5 mins followed by substrate addition measured after 20 mins by Ellman's method
Chain of Acetylcholinesterase (Electrophorus electricus) (O42275 24-633 limits assumed): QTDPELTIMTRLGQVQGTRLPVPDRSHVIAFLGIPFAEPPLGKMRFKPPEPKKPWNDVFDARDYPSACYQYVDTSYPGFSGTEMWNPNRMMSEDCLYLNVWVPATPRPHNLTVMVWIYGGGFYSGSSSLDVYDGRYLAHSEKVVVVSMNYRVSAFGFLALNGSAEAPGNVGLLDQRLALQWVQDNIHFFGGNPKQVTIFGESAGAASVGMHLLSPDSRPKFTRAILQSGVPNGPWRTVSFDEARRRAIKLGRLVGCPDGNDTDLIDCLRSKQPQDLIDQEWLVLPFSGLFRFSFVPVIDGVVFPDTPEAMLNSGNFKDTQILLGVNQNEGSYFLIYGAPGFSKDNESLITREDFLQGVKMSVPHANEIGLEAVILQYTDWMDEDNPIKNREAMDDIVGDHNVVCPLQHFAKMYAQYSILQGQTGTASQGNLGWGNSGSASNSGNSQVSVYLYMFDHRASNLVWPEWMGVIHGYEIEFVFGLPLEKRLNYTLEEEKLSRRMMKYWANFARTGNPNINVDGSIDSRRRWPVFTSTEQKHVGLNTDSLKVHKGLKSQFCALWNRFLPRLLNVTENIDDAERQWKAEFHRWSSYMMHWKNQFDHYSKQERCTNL

[4] = target: T1, Amine oxidase [flavin-containing] B; experiment: Non-competitive inhibition of MAO-B extracted from Wistar rat liver at 5 to 500 uM using varying level of 4-trifluoromethyl benzylamine as substrate preincubated for 20 mins followed by substrate addition measured after 90 mins by microplate reader assay; details: 1.5 h

Chain of Acetylcholinesterase (O42275 whole entry): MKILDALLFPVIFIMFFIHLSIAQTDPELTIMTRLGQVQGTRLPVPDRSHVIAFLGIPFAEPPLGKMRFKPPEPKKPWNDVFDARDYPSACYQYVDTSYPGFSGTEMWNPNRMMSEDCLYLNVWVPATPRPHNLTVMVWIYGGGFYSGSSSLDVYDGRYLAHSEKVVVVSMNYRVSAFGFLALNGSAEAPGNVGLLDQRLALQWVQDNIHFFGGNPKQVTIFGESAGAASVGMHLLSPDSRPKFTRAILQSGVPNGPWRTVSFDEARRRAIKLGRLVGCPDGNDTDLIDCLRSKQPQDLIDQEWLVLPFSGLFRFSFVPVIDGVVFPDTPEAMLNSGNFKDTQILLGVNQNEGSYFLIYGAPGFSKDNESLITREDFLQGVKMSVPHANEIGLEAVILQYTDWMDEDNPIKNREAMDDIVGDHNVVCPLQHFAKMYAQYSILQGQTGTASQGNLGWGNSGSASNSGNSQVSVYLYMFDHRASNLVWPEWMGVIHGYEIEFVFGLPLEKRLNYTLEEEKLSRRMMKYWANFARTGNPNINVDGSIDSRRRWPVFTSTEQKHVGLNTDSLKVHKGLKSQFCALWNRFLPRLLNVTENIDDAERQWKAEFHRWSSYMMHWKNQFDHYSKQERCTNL

| SMILES | IC50 (Acetylcholinesterase) [µM] | IC50 (Cholinesterase) [µM] | IC50 [1] [µM] | Activity [2] [mmol/g] | inhibition [3] | inhibition (INH) [4] |
| --- | --- | --- | --- | --- | --- | --- |
| COc1ccc(C2CC(=O)Oc3c2ccc(O)c3O)cc1 (stereo not drawn) | 21.6 | 149 | 2.18 | 9.17 | – | – |
| O=c1cc(-c2ccc(O)c(O)c2)c2ccc(O)cc2o1 | 8.86 | > 300 | > 300 | 9.71 | – | – |
| O=C1CC(c2ccc(O)c(O)c2)c2ccc(O)c(O)c2O1 (stereo not drawn) | 0.283 | 72.5 | 0.43 | 9.6 | – | – |
| COc1ccc(C2CC(=O)Oc3ccc(O)cc32)cc1OC (stereo not drawn) | > 50 | > 300 | > 300 | 0.922 | – | – |
| COc1ccc(C2CC(=O)Oc3cc(O)ccc32)cc1 (stereo not drawn) | > 50 | > 300 | > 300 | 0.896 | – | – |
| COc1ccc(C2CC(=O)Oc3cc(O)cc(O)c32)cc1 (stereo not drawn) | > 50 | > 300 | 83.7 | 1.06 | – | – |
| COc1ccc(C2CC(=O)Oc3cc(O)cc(O)c32)cc1OC (stereo not drawn) | > 50 | > 300 | 141 | 1.5 | – | – |
| O=C1O[C@H]([C@@H](O)CO)C(O)=C1O | – | – | – | 9.87 | – | – |
| COc1cc(C2CC(=O)Oc3cc(O)cc(O)c32)ccc1O (stereo not drawn) | > 50 | > 300 | 55.9 | 9.01 | – | – |
| O=c1cc(-c2cc(O)c(O)c(O)c2)c2ccc(O)c(O)c2o1 | 0.025 | 106 | 1.99 | 10.1 | Active | – |
| O=c1cc(-c2ccc(O)c(O)c2)c2ccc(O)c(O)c2o1 | 7.05 | 188 | 189 | 10.5 | – | – |
| O=c1cc(-c2ccc(O)c(O)c2)c2cc(O)cc(O)c2o1 | 7 | 208 | 22.2 | 10.5 | – | – |
| COc1ccc(C2CC(=O)Oc3c(O)cc(O)cc32)cc1 (stereo not drawn) | > 50 | > 300 | 75.4 | 2.85 | – | – |
| COc1cc(C2CC(=O)Oc3cc(O)ccc32)ccc1O (stereo not drawn) | > 50 | > 300 | 82.5 | 9.38 | – | – |
| COc1ccc(C2CC(=O)Oc3c(O)cc(O)cc32)cc1OC (stereo not drawn) | > 50 | > 300 | 26.6 | 4.76 | – | – |
| O=C1CC(c2ccc(O)cc2)c2c(O)cc(O)cc2O1 (stereo not drawn) | > 50 | > 300 | 19.4 | 2.26 | – | – |
| O=c1cc(-c2ccc(O)cc2)c2ccc(O)c(O)c2o1 | 9.45 | > 300 | 293 | 9.89 | – | – |
| COc1ccc(-c2cc(=O)oc3cc(O)cc(O)c23)cc1OC | 7.92 | > 300 | 104 | 1.37 | – | – |
| COc1cc(-c2cc(=O)oc3c(O)c(O)ccc23)cc(OC)c1OC | 0.299 | > 300 | > 300 | 9.65 | – | – |
| COc1ccc(-c2cc(=O)oc3c(O)c(O)ccc23)cc1OC | 0.052 | > 300 | > 300 | 9.89 | – | – |
| COc1cc(C2CC(=O)Oc3c2ccc(O)c3O)ccc1O (stereo not drawn) | 10.9 | 134 | 0.257 | 10.1 | – | Active |

From ChEMBL document CHEMBL4610034, “Synthesis and biological evaluation of 4-arylcoumarins as potential anti-Alzheimer's disease agents” (Bioorg Med Chem Lett, 2020)
